Entries after “also recorded” stand apart in the source; their conditions may differ.
Test system: ear margin fibroblasts (GEFs) of goat
Assay: induction of transdifferentiation of fibroblasts into mammary epithelial cells with induction medium, cell morphology
Type: cell-based
Settings: for transdifferentiation of fibroblasts into mammary epithelial cells with the inhibitor alone: 8 d, 10 μM SB431542, 5 μM SB525334, 1 μM LDN193189 induction medium alone
Method: 1. The ear margin fibroblasts (GEFs) of goat were isolated and cultured by a tissue adherence method to provide cell materials for subsequent induction.
2. The fibroblasts were inoculated into a 60 mm cell culture dish at a density of 5×10^5, and after culturing for 8 h to 24 h in the high-glucose DMEM+10% FBS (volume percentage), the induction medium BFRTV was replaced, and then cultured at 37° C. for 8 d in a 5% CO2 incubator, where the medium was changed every two days.
3. When cultured to the 8th day, CiMECs can be subcultured and inoculated onto a plate pretreated with Matrix (a volume ratio of Matrix to gelatin was 1:50), and then cultured in a mammary epithelial cell medium, when the cell confluence reached about 90%, the cells were subcultured or frozen for subsequent detection.
Taking the ear margin fibroblasts of Guanzhong dairy goat as an experimental object, the concentration of five small molecule compounds currently used was adjusted, and the concentration of BFRTV was adjusted as a whole under the condition that the basal solution remained unchanged.

Row | SMILES | induction of mammary epithelial cells with Repsox alone (R induction medium) (R induction medium, no other small molecule) | transdifferentiation of fibroblasts into mammary epithelial cells with the inhibitor alone
1 | Cc1cccc(-c2[nH]ncc2-c2ccc3ncccc3n2)n1 [Repsox] | mammary epithelial cells (CiMECs) similar to those by BFRTV induction medium were obtained | –
2 | Cc1cccc(-c2[nH]c(C(C)(C)C)nc2-c2ccc3nccnc3c2)n1 [SB525334] | – | the fibroblasts can be induced into mammary epithelial cells; also recorded: could still induce the transdifferentiation of fibroblasts into mammary epithelial cells
3 | NC(=O)c1ccc(-c2nc(-c3ccc4c(c3)OCO4)c(-c3ccccn3)[nH]2)cc1 [SB431542] | – | the fibroblasts can be induced into mammary epithelial cells; also recorded: could still induce the transdifferentiation of fibroblasts into mammary epithelial cells
4 | c1ccc2c(-c3cnn4cc(-c5ccc(N6CCNCC6)cc5)cnc34)ccnc2c1 [LDN193189] | – | the fibroblasts can be induced into mammary epithelial cells; also recorded: could still induce the transdifferentiation of fibroblasts into mammary epithelial cells

From US20230066648A1, “METHOD FOR INDUCING TRANSDIFFERENTIATION OF SOMATIC CELLS INTO MAMMARY EPITHELIAL CELLS IN VITRO USING SMALL MOLECULE COMPOUND” (GUANGXI UNIVERSITY, priority 2019, published 2023)
